Source: US20130267494A1, “1,4-OXAZEPANE DERIVATIVES” (priority 2010, published 2013)
Where a name gives a salt, the structure may show the parent alone.

Columns and labels:
Assay type in all cases: cell-based
[1] = biological target: T1, human serotonin transporter (Homo sapiens, UniProt P31645); experiment: Inhibitory action on human serotonin transporter ([3H]-5-hydroxytryptamine uptake in CHO cells); settings: CHO, compound 1 μM; relative to inhibitory activity of 10 μM Paroxetine as 100%; read-out: inhibitory rate (%)
T1 construct: expressed in transfected cells
T1 sequence (P31645 whole entry): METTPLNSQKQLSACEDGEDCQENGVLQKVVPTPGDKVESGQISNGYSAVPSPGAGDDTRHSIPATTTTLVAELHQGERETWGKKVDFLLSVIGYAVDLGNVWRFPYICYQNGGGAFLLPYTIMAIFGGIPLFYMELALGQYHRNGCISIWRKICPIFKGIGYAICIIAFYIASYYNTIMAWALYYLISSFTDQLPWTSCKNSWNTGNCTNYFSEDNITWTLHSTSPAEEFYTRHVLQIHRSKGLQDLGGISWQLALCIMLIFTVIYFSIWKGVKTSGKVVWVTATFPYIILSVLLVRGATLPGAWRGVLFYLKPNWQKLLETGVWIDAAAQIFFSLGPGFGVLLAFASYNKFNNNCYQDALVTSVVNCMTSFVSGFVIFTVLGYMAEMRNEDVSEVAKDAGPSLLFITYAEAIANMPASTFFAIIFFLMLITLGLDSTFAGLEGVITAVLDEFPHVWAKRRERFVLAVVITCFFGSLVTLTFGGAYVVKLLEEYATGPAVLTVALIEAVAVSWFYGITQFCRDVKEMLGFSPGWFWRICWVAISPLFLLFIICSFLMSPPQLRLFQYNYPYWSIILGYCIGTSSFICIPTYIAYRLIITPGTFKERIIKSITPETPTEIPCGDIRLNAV
Source text: (§1) Human serotonin transporter cDNA was amplified from human brain cDNA library by PCR, and inserted into pCRII-TOPO vector (manufactured by Invitrogen). The base sequence was confirmed and modified, and subcloned to pcDNA3.1 vector (manufactured by Invitrogen), whereby a human serotonin transporter expression plasmid was constructed. Human norepinephrine transporter cDNA was purchased from Invitrogen, and the base sequence was confirm and modified, and subcloned to pcDNA3.1 vector, whereby a human norepinephrine transporter expression plasmid was constructed.
(§2) The monoamine transporter expression plasmids thus prepared were introduced into CHO-K1 cells using FuGENE6 (manufactured by Roche Diagnostics) and according to the attached protocol, whereby each expressing cell was established.
CHO cells stably expressing a human serotonin transporter were used for the measurement of human serotonin transporter inhibitory activity. Unless particularly indicated, these CHO cells were cultured in a Ham/F12 medium (Invitrogen) containing 10% fetal bovine serum (MOREGATE).
(§3) The cultured cells that reached almost confluent were rinsed with PBS (Invitrogen), detached with Trypsin/EDTA (Invitrogen), and collected by a centrifugal operation. The obtained cells were counted, and diluted to 3×10^5 cells per 1 mL medium, the mixture was dispensed to a 96 well white plate (Corning) at 100 μL per well, and cultured overnight in a CO2 incubator.
(§4) Then, an assay buffer (126 mM NaCl, 4.95 mM KCl, 1.26 mM KH2PO4, 1.26 mM MgSO4, 10 mM HEPES, 2.32 mM CaCl2, 5.52 mM Glucose, 0.5% BSA) was prepared, the medium in the cell plate was removed and the assay buffer was added by 80 μL. A test compound was diluted with the assay buffer to a 10-fold concentration of the final concentration, and the mixture was dispensed to a 96 well polypropylene plate. The diluted test compound was dispensed to the cell plate by 10 μL. [3H]-5-Hydroxytryptamine (GE Healthcare) was diluted with the assay buffer to 200 nM, and the mixture was dispensed to the cell plate by 10 μL. At 20 min from [3H]-5-hydroxytryptamine addition, the assay buffer was removed by suction, and the plate was washed twice with 150 μL of PBS (Invitrogen) per well. Microscinti20 (PerkinElmer) was dispensed to each well by 100 μL, and the mixture was stirred for about 30 min. The radioactivity was measured by TopCount (PerkinElmer).
The inhibitory activity of each compound (10 μM) was calculated as a relative activity value based on the inhibitory activity of 10 μM Paroxetine (serotonin transporter inhibitor) as 100%.
In addition, the inhibitory activity of each compound (1 μM) was calculated as a relative activity value based on the inhibitory activity of 10 μM Paroxetine (serotonin transporter inhibitor) as 100%.

[2] = biological target: T2, human norepinephrine transporter (Homo sapiens, UniProt P23975); experiment: Inhibitory action on human norepinephrine transporter ([3H]-norepinephrine uptake in CHO cells); settings: CHO, compound 1 μM; relative to inhibitory activity of 10 μM DMI as 100%; read-out: inhibitory rate (%)
T2 construct: expressed in transfected cells
T2 sequence (P23975 whole entry): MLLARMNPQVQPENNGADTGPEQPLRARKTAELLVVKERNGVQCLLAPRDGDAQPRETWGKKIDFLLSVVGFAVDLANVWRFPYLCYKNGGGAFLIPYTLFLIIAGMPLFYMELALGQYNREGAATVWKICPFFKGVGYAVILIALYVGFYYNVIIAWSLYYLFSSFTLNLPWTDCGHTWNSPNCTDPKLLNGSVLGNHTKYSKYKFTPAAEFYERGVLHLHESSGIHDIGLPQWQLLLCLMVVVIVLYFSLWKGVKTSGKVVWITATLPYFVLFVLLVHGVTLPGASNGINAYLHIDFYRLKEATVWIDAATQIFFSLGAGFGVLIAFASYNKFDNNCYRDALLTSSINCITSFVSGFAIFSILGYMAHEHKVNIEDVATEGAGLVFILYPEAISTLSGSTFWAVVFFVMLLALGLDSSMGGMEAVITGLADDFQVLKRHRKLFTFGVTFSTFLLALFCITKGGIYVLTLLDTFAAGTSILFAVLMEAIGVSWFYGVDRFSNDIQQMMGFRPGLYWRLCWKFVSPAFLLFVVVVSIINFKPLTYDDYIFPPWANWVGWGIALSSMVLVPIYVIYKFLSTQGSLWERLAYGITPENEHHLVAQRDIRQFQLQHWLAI
Source text: as §1, §2
CHO cells stably expressing human norepinephrine transporter were used for the measurement of human norepinephrine transporter inhibitory activity. Unless otherwise indicated, these CHO cells were cultured in Ham/F12 medium (Invitrogen) containing 10% fetal bovine serum (MOREGATE).
as §3, with “medium, and” for “medium,”
as §4, with “μL. [3H]-Norepinephrine” for “μL. [3H]-5-Hydroxytryptamine”, “At 45” for “At 20”, “from [3H]-norepinephrine” for “from [3H]-5-hydroxytryptamine”
The inhibitory activity of each compound (10 μM) was calculated as a relative activity value based on the inhibitory activity of 10 μM DMI (norepinephrine transporter inhibitor) as 100%.
The inhibitory activity of each compound (1 μM) was calculated as a relative activity value based on the inhibitory activity of 10 μM DMI (norepinephrine transporter inhibitor) as 100%.

[3] = biological target: T3, human dopamine transporter (Homo sapiens, UniProt Q01959); experiment: Inhibitory action on human dopamine transporter ([3H]-dopamine uptake in CHO cells); settings: CHO, compound 1 μM; relative to inhibitory activity of 100 μM Nomifensine as 100%; read-out: inhibitory rate (%)
T3 construct: expressed in transfected cells
T3 sequence (Q01959 whole entry): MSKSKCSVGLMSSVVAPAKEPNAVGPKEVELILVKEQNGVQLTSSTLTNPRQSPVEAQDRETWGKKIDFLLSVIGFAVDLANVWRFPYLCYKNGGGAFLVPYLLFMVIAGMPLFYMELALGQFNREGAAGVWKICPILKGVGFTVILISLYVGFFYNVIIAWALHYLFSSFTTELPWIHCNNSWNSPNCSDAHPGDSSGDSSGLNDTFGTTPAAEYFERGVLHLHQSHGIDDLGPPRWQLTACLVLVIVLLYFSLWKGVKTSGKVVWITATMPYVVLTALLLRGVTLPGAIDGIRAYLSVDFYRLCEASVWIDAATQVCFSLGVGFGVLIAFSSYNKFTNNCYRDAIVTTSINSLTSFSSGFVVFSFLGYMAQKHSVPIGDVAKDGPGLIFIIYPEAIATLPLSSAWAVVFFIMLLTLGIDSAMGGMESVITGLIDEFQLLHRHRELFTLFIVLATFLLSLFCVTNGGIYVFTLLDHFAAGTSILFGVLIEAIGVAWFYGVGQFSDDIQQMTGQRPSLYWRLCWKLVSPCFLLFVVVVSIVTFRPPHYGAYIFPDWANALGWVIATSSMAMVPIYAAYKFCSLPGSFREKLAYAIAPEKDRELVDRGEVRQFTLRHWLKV
Source text: SRα promoter contained in pTB1411 described in JP-A-H5-076385 was cleaved with restriction enzyme […](manufactured by TAKARA BIO INC.), blunt-ended, further cleaved with restriction enzyme EcoRI (manufactured by TAKARA BIO INC.), and fragmented. On the other hand, pCI vector was cleaved with restriction enzyme BglII (manufactured by TAKARA BIO INC.), blunt-ended with T4 DNA polymerase, and further cleaved with restriction enzyme EcoRI (manufactured by TAKARA BIO INC.). Into this site was inserted an SRa promoter fragment to give pCI-SRa. Then, pCI-SRa was cleaved with restriction enzyme ClaI (manufactured by TAKARA BIO INC.) and blunt-ended. Into this site was inserted a 1.63 Kb fragment obtained by cleaving pGFP-C1 (manufactured by TOYOBO) with restriction enzyme Bsu36I (manufactured by Daiichi Pure Chemicals Co., Ltd.) followed by blunt-ending, whereby pMSRα neo was prepared. Human dopamine transporter cDNA was amplified from human substantia nigra cDNA library by PCR, and inserted into the pCRII vector (manufactured by Invitrogen). The base sequence was confirmed, modified and subcloned to pMSRα neo, whereby a human dopamine transporter expression plasmid was constructed.
as §2
CHO cells stably expressing human dopamine transporter were used for the measurement of human dopamine transporter inhibitory activity. Unless otherwise indicated, these CHO cells were cultured in Ham/F12 medium (Invitrogen) containing 10% fetal bovine serum (MOREGATE).
as §3, with “One day before the assay, the cultured” for “The cultured”, “medium, and” for “medium,”
as §4, with “On the day of the test, an” for “Then, an”, “μL. [3H]-Dopamine” for “μL. [3H]-5-Hydroxytryptamine”, “nM, cold dopamine was diluted to 10 μM,” for “nM,”, “At 60” for “At 20”, “from [3H]-dopamine” for “from [3H]-5-hydroxytryptamine”
The inhibitory activity of each compound (10 μM) was calculated as a relative activity value based on the inhibitory activity of 100 μM Nomifensine (dopamine transporter inhibitor) as 100%.
The inhibitory activity of each compound (1 μM) was m calculated as a relative activity value based on the inhibitory activity of 100 μM Nomifensine (dopamine transporter inhibitor) as 100%.

Row | SMILES | inhibition at 1 µM [1] | inhibition at 1 µM [2] | inhibition at 1 µM [3]
1 | CS(=O)(=O)NC[C@@]1(O)CNCCO[C@@H]1c1ccc(Cl)c(Cl)c1 (racemic) [Example 162, N-{[(6RS,7SR)-7-(3,4-dichlorophenyl)-6-hydroxy-1,4-oxazepan-6-yl]methyl}methanesulfonamide monohydrochloride] | 65% | 105% | 40%
2 | O[C@H]1CNCCO[C@@H]1c1ccc(Cl)c(Cl)c1 (racemic) [Example 230, (6RS,7SR)-7-(3,4-dichlorophenyl)-1,4-oxazepan-6-ol monohydrochloride] | 59% | 100% | 25%
3 | O=c1[nH]c(-c2cccnc2O[C@H]2CNCCOC2c2ccc(Cl)c(Cl)c2)no1 (mixture of isomers) [Example 236, 3-(2-{[(6RS,7SR)-7-(3,4-dichlorophenyl)-1,4-oxazepan-yl]oxy}pyridin-3-yl)-1,2,4-oxadiazol-5(4H)-one monohydrochloride] | 92% | 105% | 93%
4 | OC[C@@H]1CNCCO[C@@H]1c1ccc(F)c(Cl)c1 (racemic) [Example 278, [(6RS,7RS)-7-(3-chloro-4-fluorophenyl)-1,4-oxazepan-6-yl]methanol monohydrochloride] | 87% | 91% | 13%
5 | CS(=O)(=O)C[C@@H]1CNCCOC1c1ccc(F)c(Cl)c1 (mixture of isomers) [Example 281, (6RS,7SR)-7-(3-chloro-4-fluorophenyl)-6-[(methylsulfonyl)methyl]-1,4-oxazepane monohydrochloride] | 95% | 95% | 22%
6 | CS(=O)(=O)NC[C@H]1CNCCO[C@@H]1c1ccc(F)c(Cl)c1 (racemic) [Example 293, N-{[(6RS,7SR)-7-(3-chloro-4-fluorophenyl)-1,4-oxazepan-6-yl]methyl}methanesulfonamide monohydrochloride] | 65% | 95% | 31%
7 | OC[C@H]1CNCCO[C@@H]1c1cc2ccccc2s1 (racemic) [Example 410, [(6RS,7SR)-7-(1-benzothiophen-2-yl)-1,4-oxazepan-6-yl]methanol monohydrochloride] | 91% | 103% | 32%
8 | CCOC(=O)[C@H]1NCCOC[C@@H]1c1ccc(Cl)c(Cl)c1 (racemic) [Example 412, ethyl (5RS,6SR)-6-(3,4-dichlorophenyl)-1,4-oxazepane-5-carboxylate monohydrochloride] | 8% | 86% | 83%
9 | COC[C@@H]1OCCNC[C@@H]1c1ccc(Cl)c(Cl)c1 (racemic) [Example 449, (6RS,7SR)-6-(3,4-dichlorophenyl)-7-(methoxymethyl)-1,4-oxazepane monohydrochloride] | 53% | 100% | 58%
10 | O=C(Cn1cncn1)NC[C@@H]1OCCNC[C@@H]1c1ccc(Cl)c(Cl)c1 (racemic) [Example 457, N-{[(6RS,7SR)-6-(3,4-dichlorophenyl)-1,4-oxazepan-7-yl]methyl}-2-(1H-1,2,4-triazol-1-yl)acetamide monohydrochloride] | 27% | 101% | 47%
11 | OCCOC[C@H]1OCCNC[C@@H]1c1ccc(Cl)c(Cl)c1 (racemic) [Example 495, 2-{[(6RS,7RS)-6-(3,4-dichlorophenyl)-1,4-oxazepan-7-yl]methoxy}ethanol monohydrochloride] | 59% | 105% | 42%
12 | CS(=O)(=O)NCCC[C@@H]1OCCNC[C@H]1c1ccc(Cl)c(Cl)c1 (racemic) [Example 520, N-{3-[(6RS,7SR)-6-(3,4-dichlorophenyl)-1,4-oxazepan-7-yl]propyl}methanesulfonamide monohydrochloride] | 84% | 105% | 36%
13 | O=S(=O)(NC[C@@]1(O)CNCCO[C@@H]1c1ccc(Cl)c(Cl)c1)C(F)F (racemic) [Example 521, N-{[(6RS,7SR)-7-(3,4-dichlorophenyl)-6-hydroxy-1,4-oxazepan-6-yl]methyl}-1,1-difluoromethanesulfonamide monohydrochloride] | 84% | 104% | 76%
